Reference: patent US20120190752A1, “EXO-S-MECAMYLAMINE METHOD, USE, AND COMPOUND FOR TREATMENT” (Targacept Inc., priority 2009, published 2012)

System: subjects with major depressive disorder (MDD) who were inadequate responders to citalopram
Experiment: Individual HAMD-17 factor (subscale) scores, exploratory analysis
Type: in vivo, human
Experimental: In more detail, a multi-center double-blind, randomized, placebo-controlled, parallel group, flexible dose titration study of TC-5214 as adjunctive therapy in subjects with major depressive disorder (MDD) who were inadequate responders to citalopram was conducted in centers in the US and India. The study consisted of a screening period, baseline/washout period, open-label phase, double-blind phase, and a follow-up visit. Subject participation in the study could continue for up to 16 weeks of treatment. Following a washout period of up to 28 days for other antidepressants, subjects with MDD and a MADRS total score >/=28 and a Clinical Global Impression-Severity (CGI-S) score >/=4 were enrolled on Day 1 into an open-label citalopram-only phase of the study. This phase lasted 8 weeks, with citalopram (CIT) dose increased from a once-daily dose of 20 mg (Day 1 through Week 4) to 40 mg (Week 4 through Week 8). A total of 579 subjects entered the open-label citalopram phase. At Week 8, subjects who tolerated 40 mg CIT, but whose MADRS score was reduced <50% from baseline and no lower than 17, and CGI-S≧4, were considered inadequate responders. These subjects (n=270) were randomized in a double-blind fashion to receive either placebo or TC-5214-23 as add-on therapy to continued CIT. The double-blind phase of the study also lasted 8 weeks (Week 8 to Week 16). Study drug, TC-5214-23 or placebo, was started at 2 mg daily (1 mg twice per day [BID] dosing), added on to continuing CIT (40 mg PO qd). After 2 weeks of treatment, the dose of TC-5214 could be increased to 4 mg (2 mg BID) or continued unchanged, with up-titration based upon good tolerability and inadequate therapeutic response. After a further 2 weeks, the dose of TC-5214 could be increased again to 8 mg (4 mg BID) if judged appropriate by the investigator, based upon good tolerability and inadequate therapeutic response. At any time during the double-blind phase of the study, placebo or TC-5214-23 could be reduced to the previous dose level following the emergence of unacceptable adverse events (AEs). […] At this follow-up, any signs or symptoms of relapse were evaluated. If a subject was prematurely discontinued from the study between Week 8 and Week 16 for any reason, the investigator was to make every effort to perform all evaluations as per protocol, assuming the subject had reached the end of the double-blind add-on treatment phase. These evaluations were to be made as soon as possible and within 2 weeks of discontinuation. […] There was no meaningful difference in results as a function of age, gender, site, or smoking status. An exploratory analysis assessed the differences in the treatment groups from Week 8 (double-blind baseline) to Week 16 for each individual HAMD-17 factor score.

[1] = ITT population, Week 8 (double-blind baseline) to Week 16

Compound: CNC1(C)C2CCC(C2)C1(C)C (stereo in doubt) [TC-5214, (S)—N,2,3,3-tetramethylnorbornan-2-amine]
- HAMD-17 item 1 Depression-Mood: Adjusted Mean Change TC-5214—Placebo (SD) [1]: −0.69 (0.86)
- HAMD-17 item 1 Depression-Mood: Effect Size [1]: 0.80
- HAMD-17 item 2 Feelings of Guilt: Adjusted Mean Change TC-5214—Placebo (SD) [1]: −0.43 (0.72)
- HAMD-17 item 2 Feelings of Guilt: Effect Size [1]: 0.60
- HAMD-17 item 3 Suicide: Adjusted Mean Change TC-5214—Placebo (SD) [1]: −0.07 (0.40)
- HAMD-17 item 3 Suicide: Effect Size [1]: 0.18
- HAMD-17 item 4 Early Insomnia: Adjusted Mean Change TC-5214—Placebo (SD) [1]: −0.41 (0.64)
- HAMD-17 item 4 Early Insomnia: Effect Size [1]: 0.64
- HAMD-17 item 5 Middle Insomnia: Adjusted Mean Change TC-5214—Placebo (SD) [1]: −0.42 (0.64)
- HAMD-17 item 5 Middle Insomnia: Effect Size [1]: 0.66
- HAMD-17 item 6 Late Insomnia: Adjusted Mean Change TC-5214—Placebo (SD) [1]: −0.35 (0.63)
- HAMD-17 item 6 Late Insomnia: Effect Size [1]: 0.56
- HAMD-17 item 7 Work and Activities: Adjusted Mean Change TC-5214—Placebo (SD) [1]: −0.49 (0.86)
- HAMD-17 item 7 Work and Activities: Effect Size [1]: 0.57
- HAMD-17 item 8 Retardation: Adjusted Mean Change TC-5214—Placebo (SD) [1]: −0.31 (0.59)
- HAMD-17 item 8 Retardation: Effect Size [1]: 0.53
- HAMD-17 item 9 Agitation: Adjusted Mean Change TC-5214—Placebo (SD) [1]: −0.40 (0.68)
- HAMD-17 item 9 Agitation: Effect Size [1]: 0.59
- HAMD-17 item 10 Psychic Anxiety: Adjusted Mean Change TC-5214—Placebo (SD) [1]: −0.59 (0.77)
- HAMD-17 item 10 Psychic Anxiety: Effect Size [1]: 0.77
- HAMD-17 item 11 Somatic Symptoms: Anxiety: Adjusted Mean Change TC-5214—Placebo (SD) [1]: −0.41 (0.70)
- HAMD-17 item 11 Somatic Symptoms: Anxiety: Effect Size [1]: 0.59
- HAMD-17 item 12 Somatic Symptoms: GI: Adjusted Mean Change TC-5214—Placebo (SD) [1]: −0.23 (0.52)
- HAMD-17 item 12 Somatic Symptoms: GI: Effect Size [1]: 0.44
- HAMD-17 item 13 Somatic Symptoms: General: Adjusted Mean Change TC-5214—Placebo (SD) [1]: −0.24 (0.66)
- HAMD-17 item 13 Somatic Symptoms: General: Effect Size [1]: 0.36
- HAMD-17 item 14 Somatic Symptoms: Genital: Adjusted Mean Change TC-5214—Placebo (SD) [1]: −0.34 (0.62)
- HAMD-17 item 14 Somatic Symptoms: Genital: Effect Size [1]: 0.55
- HAMD-17 item 15 Hypochondriasis: Adjusted Mean Change TC-5214—Placebo (SD) [1]: −0.48 (0.74)
- HAMD-17 item 15 Hypochondriasis: Effect Size [1]: 0.65
- HAMD-17 item 16 Weight Loss: Adjusted Mean Change TC-5214—Placebo (SD) [1]: −0.20 (0.53)
- HAMD-17 item 16 Weight Loss: Effect Size [1]: 0.38
- HAMD-17 item 17 Insight: Adjusted Mean Change TC-5214—Placebo (SD) [1]: 0.03 (0.31)
- HAMD-17 item 17 Insight: Effect Size [1]: 0.10
- each HAMD-17 subscale score change from baseline compared with placebo (ITT, with the exception of the Suicide and Insight subscales, result in words): statistically significant decreases (improvements)
